Patent publication US12280026B2, “Use of repirinast in the prophylaxis or treatment of renal fibrosis or kidney disease” (ALGERNON PHARMACEUTICALS INC., priority 2018, dated 2025)
“Also recorded” adds a separate entry of the source.

What was measured:
Assay type in all cases: in vivo
[1] = test system: C57BL/6 mice with UUO surgical ligation; assay: Example 1: UUO mice, kidney weight evaluation (ligated vs non-ligated kidney); settings: doses of Table 1
Protocol: (§1) Male 9-12 week old C57BL/6 mice of 23-25 grams body weight were used. All mice were acclimated for a minimum of 5 days prior to the start of the study and housed individually in microisolators throughout the study in a 12:12 light-dark cycle on a standard maintenance mouse chow diet (Harlan Teklad 2018) with food and water given ad libitum. Prior to surgery, all mice were weighed for baseline body weight.
The UUO surgical intervention was performed according to previously described methods known in the art (Le Meur Y et al., Macrophage accumulation at a site of renal inflammation is dependent on the M-CSF/c-fms pathway, J Leukocyte Biol., 72:530-537; 2002). […]
(§2) The dose selected for the animal studies was determined by taking the maximum known human daily dose, dividing by the average weight of an adult (˜60-70 kg) to get a human mg/kg dose. […]
Kidney weight: The UUO was then examined in situ to ensure that the surgical ligation ties remained patent. […] Weights of both kidneys were measured using a laboratory balance.
Kidney Weight Evaluation: Kidney weight indicating, which indicates functional and pathological changes in the kidney, was evaluated by measuring the weight of both the ligated (UUO) and non-ligated kidneys as previously described. […]

[2] = Example 1: UUO mice, mean body weight change following surgery; settings: Example 1, mostly post-surgical day 14, male C57BL/6 mice, PO QD days 1-14, doses of Table 1
Protocol: as §1
(§3) The UUO surgical intervention was performed according to previously described methods known in the art (Le Meur Y et al., Macrophage accumulation at a site of renal inflammation is dependent on the M-CSF/c-fms pathway, J Leukocyte Biol., 72:530-537; 2002).
(§4) All mice were first anesthetized by intraperitoneal injection with a rodent cocktail (ketamine 10 mg/mL and Xyaline 1 mg/mL) in normal saline (10 μL/g body weight). Pedal reflex and movement of the vibrissae were used to determine the state of unconsciousness. A state of unconsciousness was confirmed after a period of about 5 minutes in all animals. All mice were then shaved on the left side of the abdomen. The shaved area was first swabbed with iodine and then swabbed with alcohol. A vertical incision was made through the skin with a #22 scalpel and the skin was then retracted. A further incision of about 2.5 cm was then made through the peritoneum avoiding any major blood vessels. The peritoneum was then retracted and the left kidney was exposed.
(§5) The left kidney was then brought to the surface by hooking the ureter directly beneath the kidney with sterile forceps and gently manipulating the kidney upward. The ureter was ligated at two points directly below the kidney with 5-0 surgical silk with excess suture cut away and discarded post-ligation. The kidney was then gently placed back to its correct anatomical position and the abdomen was lavaged with 1 mL sterile saline to replenish fluid loss. The peritoneum and then skin were sutured with 5-0 Mersilene, and the incision site was gently wiped with iodine. All mice were then placed individually in clean cages that were set on top of a thermal blanket until recovery at about 30-60 minutes later. In some examples, sham surgery was performed as a control by following all steps of the UUO surgical intervention procedure except ligation.
(§6) Following surgery, the mice were divided into 14 individual study groups of 8 mice each and, following post-surgical recovery, administered a once-daily oral treatment for 14 days. The mice in 12 of the 14 study groups (hereafter known as “treatment groups”) had all received the UUO surgical ligation and were treated individually with a distinct pharmacologic compound as set out in Table 1. The mice in 2 of the 14 study groups were treated individually with a pharmaceutically acceptable vehicle with no active ingredient. The pharmaceutically acceptable vehicle in all groups was 0.5% carboxymethyl cellulose (CMC). All mice were sacrificed with CO2 on post-surgical day 15.
as §2
Body weight: The body weights were measured on days 1, 2, 5, 8, 10 and 14 using a laboratory balance.
Body weights were measured on post-surgical days 1, 2, 5, 8, 10 and 14 as previously described. The mean body weight change of each study group was calculated using the body weight average of all mice in each study group.

[3] = test system: C57BL/6 mice with UUO surgical ligation; assay: Example 1: UUO mice, renal fibrosis evaluation (Sirius Red histology score); settings: Bemithyl 200, Emoxypine 160, Suplatast Tosylate 60, Udenafil 40, Telmisartan 5 mg/kg PO QD, 4-methylbenzenesulfonate
Protocol: as §1, §3, §4, §5, §6, §2
Histopathology: Formalin-fixed kidney cross-section samples were subjected histopathological scoring with Sirius Red staining, and imaged at a magnification of ×20, using standard techniques. All three sections were stained and evaluated. […] The presence of interstitial damage and severity score was assessed according to the following criteria: 0=normal, 1=light, 2=moderate, 3=severe. […]

[4] = test system: C57BL/6 mice with UUO surgical ligation; assay: Example 1: UUO mice, renal function evaluation (plasma BUN, creatinine); settings: Example 1
Protocol: as §1, §3, §4, §5, §6
The dose selected for the animal studies was determined by taking the maximum known human daily dose, dividing by the average weight of an adult (˜60-70 kg) to get a human mg/kg dose. Then that number was multiplied by 12 to convert to a mouse dose based on conventional dosing tables. See Nair and Jacob, J Basic Clin Pharm March 2016-May 2016, 7(2):27-31.
Serum collection: A blood sample was then collected from all mice and plasma analyzed for urea nitrogen and creatinine. Plasma was stored at −80° C. for possible future analysis.
Renal Function Evaluation: Renal function and disease progression was evaluated by BUN (blood urea nitrogen) as previously described. The BUN of each study group consisted of the BUN average of all mice in each study group.

| Structure (SMILES) | Ligated kidney weight in comparison to control groups, in words [1] | Mean body weight change, comparison with control groups, in words [2] | Kidney fibrosis / Histology Score, significance and comparison in words [3] | Reduction in BUN compared to vehicle, significance in words ([4]; Bonferroni post-test, Suplatast Tosylate 60, Iguratimod 15, Lobenzarit 48, Actarit 60, Udenafil 40 mg/kg PO QD) | BUN in comparison to control groups, in words ([4]; UUO, male C57BL/6 mice, PO QD days 1-14, doses of Table 1) |
| --- | --- | --- | --- | --- | --- |
| CCn1c(=O)c2c(nc(/C=C/c3ccc(OC)c(OC)c3)n2C)n(CC)c1=O [Istradefylline, 8-[(E)-2-(3,4-dimethoxyphenyl)vinyl]-1,3-diethyl-7-methyl-3,7-dihydro-1H-purine-2,6-dione] | increased in comparison to the remaining 13 study groups | greater decrease in body weight | – | – | – |
| CCOCC(O)COc1ccc(NC(=O)CC[S+](C)C)cc1.Cc1ccc(S(=O)(=O)[O-])cc1 (stereo not drawn) [Suplatast Tosylate, (3-{[4-(3-ethoxy-2-hydroxypropoxy)phenyl]amino}-3-oxopropyl)(dimethyl)sulfonium 4-methylbenzenesulfonate] | – | comparable to that of the surgery vehicle control group | the same as the positive control treatment group; also recorded: significant reductions in kidney fibrosis; also recorded: significant reduction in fibrosis compared to vehicle | significant reductions in BUN | decreased in comparison to the sham surgery control group |
